Source: ChEMBL document CHEMBL1123668, “Inhibition of aspartic proteinases by peptides containing lysine and ornithine side-chain analogues of statine” (J Med Chem, 1987)
Square brackets hold non-standard residues; d marks the D form. Peptide text beside a SMILES is read from it. * marks the point of attachment. ξ: configuration not given here. Sta = CC(C)C[C@H](N)[C@@H](O)CC(=O)O; Isovaleryl = CC(C)CC(=O)*; ξF = NC(Cc1ccccc1)C(=O)O

Assays:
[1] = Compound was evaluated for the inhibition of […] penicillopepsin; ( Value is time-dependent inhibition (TDI) with T1/2 > 30 s.)
Rhizopuspepsin = target: T1, Rhizopuspepsin (Rhizopus microsporus var. chinensis, UniProt P06026); assay: Inhibition of Rhizopus chinensis pepsin
T1 sequence (P06026 whole entry): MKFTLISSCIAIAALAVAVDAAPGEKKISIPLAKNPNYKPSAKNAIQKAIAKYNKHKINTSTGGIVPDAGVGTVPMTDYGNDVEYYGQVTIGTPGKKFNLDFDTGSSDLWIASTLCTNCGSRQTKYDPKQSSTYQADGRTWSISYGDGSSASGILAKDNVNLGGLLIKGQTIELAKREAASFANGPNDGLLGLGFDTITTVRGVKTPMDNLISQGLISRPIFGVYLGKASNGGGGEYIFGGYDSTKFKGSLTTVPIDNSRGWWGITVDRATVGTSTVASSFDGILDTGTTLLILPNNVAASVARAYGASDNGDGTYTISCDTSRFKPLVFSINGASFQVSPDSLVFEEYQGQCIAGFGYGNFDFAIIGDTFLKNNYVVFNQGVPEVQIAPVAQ

Pepsin A = Pepsin A (Sus scrofa, UniProt P00791); assay: Compound was evaluated for the inhibition of porcine pepsin
Chain of Pepsin A (P00791 whole entry): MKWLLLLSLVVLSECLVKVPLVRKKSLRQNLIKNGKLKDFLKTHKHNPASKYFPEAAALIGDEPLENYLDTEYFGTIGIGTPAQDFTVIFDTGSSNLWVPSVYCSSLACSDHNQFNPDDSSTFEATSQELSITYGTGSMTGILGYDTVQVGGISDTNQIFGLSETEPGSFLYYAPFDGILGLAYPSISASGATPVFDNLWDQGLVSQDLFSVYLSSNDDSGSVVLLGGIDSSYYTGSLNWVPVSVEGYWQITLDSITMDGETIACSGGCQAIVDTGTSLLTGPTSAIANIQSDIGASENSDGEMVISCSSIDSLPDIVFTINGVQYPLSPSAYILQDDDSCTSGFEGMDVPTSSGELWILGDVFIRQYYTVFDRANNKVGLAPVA

[2] = Compound was evaluated for the inhibition of porcine penicillopepsin
[3] = Compound was evaluated for the inhibition of […] penicillopepsin; Value is time-dependent inhibition (TDI) with T1/2 > 30 s)

| Ki (Rhizopuspepsin) [nM] | Ki (Pepsin A) [nM] | Ki [2] [nM] | Ki [3] [nM] | SMILES | Ki [1] [nM] |
| --- | --- | --- | --- | --- | --- |
|  |  |  |  | COC(=O)C(Cc1ccccc1)NC(=O)C[C@H](O)[C@H](CCCCN)NC(=O)[C@H](NC(=O)C(NC(=O)CC(C)C)C(C)C)C(C)C (stereo partly specified) | 0.08 |
| 33 |  |  |  | CCOC(=O)C[C@H](O)[C@H](CCCCN)NC(=O)[C@H](NC(=O)C(NC(=O)CC(C)C)C(C)C)C(C)C (stereo partly specified) |  |
| 29 | 1900 | 100 |  | CCOC(=O)C[C@H](O)[C@H](CCCCNC(C)=O)NC(=O)[C@H](NC(=O)C(NC(=O)CC(C)C)C(C)C)C(C)C (stereo partly specified) |  |
| 47 |  |  | 1.1 | CCOC(=O)CC(O)[C@H](CCCN)NC(=O)[C@H](NC(=O)C(NC(=O)CC(C)C)C(C)C)C(C)C (stereo partly specified) |  |
| 42 |  | 47 |  | CCOC(=O)C[C@H](O)[C@H](CC(C)C)NC(=O)[C@@H](NC(=O)[C@@H](NC(=O)CC(C)C)C(C)C)C(C)C (Isovaleryl-Val-Val-[Sta]-OEt) |  |

| SMILES | Ki (Rhizopuspepsin) [nM] | Ki (Pepsin A) [nM] | Ki [2] [nM] | Ki [3] [nM] | Ki [1] [nM] |
| --- | --- | --- | --- | --- | --- |
| COC(=O)C(Cc1ccccc1)NC(=O)C[C@H](O)[C@H](CC(C)C)NC(=O)[C@@H](NC(=O)[C@@H](NC(=O)CC(C)C)C(C)C)C(C)C (stereo partly specified) (Isovaleryl-VV[Sta][ξF]-OMe) | 11 |  |  |  | 1.3 |
